Measurements: PMC4861708 (Frontiers in Cell and Developmental Biology, 2016)
Values after ≈ are worked out from the molar mass of the structure shown. Where a SMILES comes first, the peptide text is derived from it. [ ]: non-standard residue; d: D form. The star is where a group is joined. Orn(α-tetramethylguanidino) = CN(C)C(=N[C@@H](CCCN)C(=O)*)N(C)C; Orn = NCCC[C@H](N)C(=O)O

Columns and labels:
[1] = test system: K. pneumoniae DSM 681 (ATCC 10031); type: cell-based, Klebsiella pneumoniae; conditions: DSM 681, 24 h
Description: (§1) MICs of P. aeruginosa strains DSM 1117 (ATCC 27853), DSM 3227 (ATCC 19429), and DSM 9644 were determined in a microdilution broth assay using 50 or 100% MHB (11.5 and 23 g/L MHB, respectively) whereas MICs of E. coli DSM 1103 (ATCC 25922) and K. pneumoniae DSM 681 (ATCC 10031) were determined in TSB (30 g/L TSB). Peptides (1 g/L in water) were serially two-fold diluted in a 96-well microtiter plate (PS, sterile, flat bottom) in 50 μL of the corresponding medium to final concentrations of 512–4 μg/mL. Bacteria were grown in nutrient broth overnight and diluted to a cell concentration of 1.5 × 10^7 cells/mL in the corresponding medium. Cell densities were determined by using the McFarland standard as reference. An aliquot (50 μL) of the cell culture was added to each well and incubated (37°C, 24 h). The OD595 was determined in a SpectraMax 340PC (Molecular Devices, Sunnyvale, USA). Additionally, MIC values were also determined for high bacteria densities (5 × 10^8 cells/mL) corresponding to the conditions used for TEM, as described above.

[2] = test system: E. coli DSM 1103 (ATCC 25922); type: cell-based, Escherichia coli; conditions: DSM 1103, 24 h
Description: as §1

[3] = test system: P. aeruginosa DSM 1117 (ATCC 27853); set-up: method as in Bluhm et al., 2015; conditions: 50% MHB; ref Bluhm et al., 2015; cited from earlier work
P. aeruginosa elastase [4] = target: T1, P. aeruginosa elastase (Pseudomonas aeruginosa, UniProt P14756); test: Elastase assay (proteolytic stability); type: in vitro ADME; conditions: Pseudomonas aeruginosa; 0.5 g/L peptide, elastase 12 units/mL, Tris-HCl pH 8.3, 37°C; read-out: Half-life time with Pseudomonas elastase
T1 construct: purchased Merck (Darmstadt, Germany)
Description: A stock solution of P. aeruginosa elastase (0.26 U/μL) was prepared in Tris-HCl (5 mmol/L, pH 8.3) and stored at −80°C. Peptides (0.5 g/L in 5 mmol/L Tris-HCl, pH 8.3) were incubated with elastase (0.012 U/μL) at 37°C under constant shaking (450 rpm) for 0, 0.5, 2, 4, and 6 h. Aliquots (10.5 μL) were precipitated with a mixture of acetonitrile and ethanol (1:1 v/v) containing 0.1% TFA (21 μL), centrifuged, the supernatant transferred into a new tube, and dried in vacuum. Samples were dissolved in aqueous acetonitrile (3% v/v) containing TFA (0.1% v/v) and analyzed by RP-HPLC using the conditions described above.

HeLa cells = test: in vitro; type: cell-based; conditions: 24 h
Description: (§2) Human embryonic kidney (HEK293) and HeLa cells were cultured in Dulbecco's modified Eagle's/Ham's F-12 medium [DMEM/F-12 (1:1)] supplemented with FBS (10% v/v), penicillin, and streptomycin (1000 units each). Primary rat cardiomyocytes (Innoprot, Elexalde Derio, Spain) were grown in medium supplemented with FBS (20% v/v), horse serum (5% v/v), L-glutamine (2 mmol/L), sodium pyruvate (2 mmol/L), MEM non-essential amino acids (Gibco, 0.1 mmol/L), penicillin, and streptomycin (1000 units each). Surfaces for cardiomyocyte growth were coated with attachment factor first. Cells (20,000/well) were seeded into a 96-well plate (PS, sterile, flat bottom), incubated for 24 h (37°C, 5% CO2), and washed twice with PBS (100 μl/well) prior to adding colorless medium (88 μL) and peptide solution (12 μL; 5, 2.5, 1.25, […], and 0.625 g/L in PBS). Positive controls were triton X-100 (1%, v/v) and melittin (60 mg/L) as lytic peptide, whereas PBS (12%, v/v) served as negative control. After an incubation period of 24 h, supernatant (25 μL) was mixed with lactate dehydrogenase (LDH) substrate (175 μL; 0.57 mmol/L sodium pyruvate, 0.24 mmol/L NADH disodium salt, 32 mmol/L potassium dihydrogen phosphate, 66 mmol/L dipotassium phosphate) in 96-well plates (PS, sterile, flat bottom). Absorbance was recorded at 340 nm every 3 min for 30 min on the Paradigm microplate reader. Due to the total release of LDH upon triton X-100 treatment, the control contained high LDH concentrations resulting in a fast substrate turnover that was only linear for the first 6 min.
(§3) The MTT cell viability assay relied on the same cell culture. Remaining medium was replaced by a mixture of fresh colorless medium (100 μL) and MTT (10 μL; 5 g/L in PBS) and incubated for 4 h (37°C, 5% CO2). A solution of sodium dodecyl sulfate (100 μL; 10%, w/v) dissolved in hydrochloric acid (10 mmol/L) was added, incubated (16 h), and the absorbance recorded at 590 nm relative to the reference at 650 nm (Paradigm microplate reader). The relative cell viability was calculated by [(ODPeptide − ODTriton)/(ODPBS − ODTriton)] × 100% and half-maximal inhibitory concentrations (IC50) with an Excel-template from cell biology protocols (www.sciencegateway.org/ protocols/cellbio/drug/hcic50.htm). For statistical analysis an unpaired t-test was applied using GraphPad Prism 5.0.

[5] = test system: Primary rat cardiomyocytes; test: in vitro; type: cell-based; conditions: 24 h
Description: as §2, §3

HEK293 cells = test: in vitro; type: cell-based, human; conditions: 24 h
Description: as §2, §3

in vitro = conditions: mouse, mouse serum, Half-life time mouse serum, 37°C
Description: Peptide solutions (1 g/L) were added to mouse serum to obtain final concentrations of 70 mg/L peptide and incubated under constant shaking at 37°C. After 0, 1, 2, 3, and 6 h aliquots (95 μL) were precipitated with aqueous TCA (25 μL, 15% w/v), incubated for 10 min on ice, and centrifuged (5 min, 12,000 × g, Eppendorf mini spin centrifuge). An aliquot of the supernatant (95 μL) was neutralized with sodium hydroxide (8 μL, 1 mol/L) and diluted with aqueous acetonitrile solution (3% acetonitrile, 0.1% TFA; 200 μL). Peptides were quantified by the peak areas obtained by analytical RP-HPLC on a Jupiter C18-column (ID: 2 mm) using a linear aqueous acetonitrile gradient with 0.1% (v/v) TFA (absorbance recorded at 214 nm). Peak areas of all time points were normalized to the initial peak area obtained after “0 min incubation” (= 100%). Experiments were carried out as triplicates in parallel and half-life times were calculated using GraphPad Prism 5.0.

P. aeruginosa elastase [6] = test: P. aeruginosa elastase (0.012 U/μL) in Tris-HCl (5 mmol/L, pH 8.3); conditions: 37°C, up to 6 h

T1 sequence (P14756 198-498): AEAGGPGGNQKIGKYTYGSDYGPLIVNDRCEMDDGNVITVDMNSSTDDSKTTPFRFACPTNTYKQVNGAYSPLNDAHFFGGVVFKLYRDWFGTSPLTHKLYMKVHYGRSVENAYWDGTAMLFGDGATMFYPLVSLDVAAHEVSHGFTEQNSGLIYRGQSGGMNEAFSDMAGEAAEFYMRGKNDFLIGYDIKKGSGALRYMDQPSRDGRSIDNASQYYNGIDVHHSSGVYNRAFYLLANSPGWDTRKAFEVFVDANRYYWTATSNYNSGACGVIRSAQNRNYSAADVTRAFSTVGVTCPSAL

CC(C)C[C@H](NC(=O)[C@H](CCCNC(=N)N)NC(=O)[C@@H]1CCCN1C(=O)[C@H](Cc1c[nH]cn1)NC(=O)[C@@H]1CCCN1C(=O)[C@@H]1CCCN1C(=O)[C@H](CCCNC(=N)N)NC(=O)[C@@H]1CCCN1C(=O)[C@H](CCCNC(=N)N)NC(=O)[C@@H]1CCCN1C(=O)[C@H](CCCN)NC(=O)[C@H](Cc1ccc(O)cc1)NC(=O)[C@@H](NC(=O)[C@@H]1CCCN1C(=O)[C@H](CCCNC(=N)N)NC(=O)[C@H](CCCN)NC(=O)[C@H](Cc1c[nH]c2ccccc12)NC(=O)[C@H](CCCN)N=C(N(C)C)N(C)C)C(C)C)C(=O)O [Api760, gu-OWORPVYOPRPRPPHPRL-OH, reference compound] ({Orn(α-tetramethylguanidino)}-W[Orn]RPVY[Orn]PRPRPPHPRL-OH)
MIC K. pneumoniae DSM 681 [1]: 8 µg/mL (≈ 3.38 µM) | MIC E. coli ATCC 25922 [2]: 8 µg/mL (≈ 3.38 µM) | times more active than Api137 against P. aeruginosa [3]: 16

CC[C@H](C)[C@H](NC(=O)[C@H](CCCCN)NC(=O)[C@H](CCC(=O)O)NC(=O)[C@H](CCCCN)NC(=O)[C@H](CO)NC(=O)[C@H](CCCCN)NC(=O)[C@H](CCCNC(=N)N)NC(=O)[C@H](Cc1ccccc1)NC(=O)[C@H](Cc1ccccc1)NC(=O)[C@H](CC(=O)O)NC(=O)CNC(=O)[C@H](CC(C)C)NC(=O)[C@@H](N)CC(C)C)C(=O)NCC(=O)N[C@@H](CCCCN)C(=O)N[C@@H](CCC(=O)O)C(=O)N[C@@H](Cc1ccccc1)C(=O)N[C@@H](CCCCN)C(=O)N[C@@H](CCCNC(=N)N)C(=O)N[C@H](C(=O)N[C@H](C(=O)N[C@@H](CCC(N)=O)C(=O)N[C@@H](CCCNC(=N)N)C(=O)N[C@H](C(=O)N[C@@H](CCCCN)C(=O)N[C@@H](CC(=O)O)C(=O)N[C@@H](Cc1ccccc1)C(=O)N[C@@H](CC(C)C)C(=O)N[C@@H](CCCNC(=N)N)C(=O)N[C@@H](CC(N)=O)C(=O)N[C@@H](CC(C)C)C(=O)N[C@H](C(=O)N1CCC[C@H]1C(=O)N[C@@H](CCCNC(=N)N)C(=O)N[C@H](C(=O)N[C@@H](CCC(=O)O)C(=O)N[C@@H](CO)C(=O)O)[C@@H](C)O)C(C)C)[C@@H](C)CC)C(C)C)[C@@H](C)CC [LL-37, reference compound]
half-life at 0.5 g/L (P. aeruginosa elastase [4]): 3 min

CC(C)C[C@H](NC(=O)[C@H](CCCNC(=N)N)NC(=O)[C@@H]1CCCN1C(=O)[C@H](Cc1c[nH]cn1)NC(=O)[C@@H]1CCCN1C(=O)[C@@H]1CCCN1C(=O)[C@H](CCCNC(=N)N)NC(=O)[C@@H]1CCCN1C(=O)[C@H](CCCNC(=N)N)NC(=O)[C@@H]1CCCN1C(=O)[C@H](CCCN)NC(=O)[C@H](Cc1ccc(O)cc1)NC(=O)[C@@H](NC(=O)[C@@H]1CCCN1C(=O)[C@H](CCCNC(=N)N)NC(=O)[C@H](CCCN)NC(=O)[C@H](Cc1c[nH]c2ccccc12)NC(=O)[C@H](CCCN)NC(=O)[C@H](Cc1c[nH]c2ccccc12)NC(=O)[C@H](CCCN)N=C(N(C)C)N(C)C)C(C)C)C(=O)O [Api793, guO(WO)2RPVYOPRPRPPHPRL] ({Orn(α-tetramethylguanidino)}-W[Orn]W[Orn]RPVY[Orn]PRPRPPHPRL-OH)
IC50 on cell viability (HeLa cells): 640 ± 150 µg/mL (≈ 240 µM) | IC50 on cell viability [5]: >600 µg/mL | IC50 on cell viability (HEK293 cells): 640 ± 50 µg/mL (≈ 240 µM) | MIC K. pneumoniae DSM 681 [1]: 16 µg/mL (≈ 6 µM) | MIC E. coli ATCC 25922 [2]: 8 µg/mL (≈ 3 µM) | half-life at 70 mg/L (in vitro): 4.1 h

gu-O(IO)2RPVYOPRPRPPHPRL-OH
not cleaved (P. aeruginosa elastase [6]): 92 ± 4% detected after 30 min and for all later time points (6 h)

CC[C@H](C)[C@H](NC(=O)[C@H](CCCN)N=C(N(C)C)N(C)C)C(=O)N[C@@H](CCCN)C(=O)N[C@@H](CCCNC(=N)N)C(=O)N1CCC[C@H]1C(=O)N[C@H](C(=O)N[C@@H](Cc1ccc(O)cc1)C(=O)N[C@@H](CCCN)C(=O)N1CCC[C@H]1C(=O)N[C@@H](CCCNC(=N)N)C(=O)N1CCC[C@H]1C(=O)N[C@@H](CCCNC(=N)N)C(=O)N1CCC[C@H]1C(=O)N1CCC[C@H]1C(=O)N[C@@H](Cc1c[nH]cn1)C(=O)N1CCC[C@H]1C(=O)N[C@@H](CCCNC(=N)N)C(=O)N[C@@H](CC(C)C)C(=O)O)C(C)C [Api755, gu-OIORPVYOPRPRPPHPRL-OH, reference compound] ({Orn(α-tetramethylguanidino)}-I[Orn]RPVY[Orn]PRPRPPHPRL-OH)
MIC K. pneumoniae DSM 681 [1]: 8 µg/mL (≈ 3.49 µM) | MIC E. coli ATCC 25922 [2]: 8 µg/mL (≈ 3.49 µM) | times more active than Api137 against P. aeruginosa [3]: 16

gu-ONNRPVYIPRPRPPHPRL-OH
not cleaved (P. aeruginosa elastase [6]): fully recovered after an incubation period of 6 h
